Like-named read-outs stand apart in the source and are kept apart here.
What was measured:
[1] = tested on: MCF7, HT-29, HEP G2, A549; assay: Cell viability (MTT assay) on human adenocarcinoma cell lines; type: cell-based; conditions: 48 hours, 250 to 0.97 nmol/L
Method: (§1) Several cell lines including human breast carcinoma (MCF7), colon adenocarcinoma (HT-29), Liver adenocarcinoma (HEP G2), Lung adenocarcinoma (A549) were treated with a range of COMPOUND I for 48 hours and the percentage of cell viability was determined by MTT assay. The average total viable cells were precisely calculated and anti-proliferative effects were determined. […] The drug were also tested on normal monkey Kidney epithelial cells.

MEK, Erk1/2 and Akt = assay: Inhibition of Ras downstream pathways (summary over readouts and cell lines); type: cell-based; conditions: Homo sapiens; PANC-1, MIA PaCa-2 and NCI-H1975; read-out: IC50 phosphorylation and activation of MEK, Erk1/2 and Akt
Method: (§2) The inhibitory effects of compounds COMPOUND I was tested on Ras-associated signal transduction pathways in three different human cell lines: the pancreatic cell-lines PANC-1 (K-Ras G12D mutant), MIA PaCa-2 (K-Ras G12C mutant), and the non-small cell lung cancer cell-line NCI-H1975 (KRas WT). FIG. 8 illustrate the inhibitory effects of COMPOUND I on phosphorylation and activation of MEK, Erk1/2 and Akt in those three cell lines. […] In contrast, the IC50s of compound COMPOUND I on the phosphorylation and activation of MEK and Erk1/2 were approximately 2 μM in PANC-1 and MIA PaCa-2 and 3 μM in NCI-H1975; and, of Akt, were approximately 5 μM in PANC-1 and MIA PaCa-2 and 5 μM in NCIH1975 (FIG. 8).

Akt, mTOR, ERK = assay: Akt/mTOR/ERK pathway activation; type: cell-based
Excerpt: In order to better understand the molecular basis of COMPOUND I induced cell cycle arrest and apoptosis, the expression of Akt and mTOR was investigated with various concentrations of COMPOUND I. Akt/mTOR is an important cell survival pathway and activated Akt inhibits apoptosis leading to cell survival. […] Additionally, it was examined whether COMPOUND I effect involved ERK signaling pathway and found the decreased activation of ERK.

[2] = tested on: PANC-1, MIA PaCa-2, NCIH1975, A549 (K-Ras G12S mutant), NCI-H1299 (N-Ras Q61K mutant); assay: Cellular proliferation of Ras wild type/mutant cell lines; type: cell-based; conditions: Homo sapiens; range over all tested cell lines
Method: The inhibition of compounds COMPOUND I on the cellular proliferation of […] cell lines were measured: The three cell lines in the signaling studies (PANC-1, MIA PaCa-2, NCIH1975), and the non-small cell lung cancer lines A549 (K-Ras G12S mutant) and NCI-H1299 (N-Ras Q61K mutant). FIG. 7 and IC50 values measured in these studies. […] Consistent with the notion that these compounds are pan-Ras superfamily inhibitors, it is reasonable to speculate that they can inhibit pathways downstream of several members of the Rassuperfamily.

[3] = tested on: p53, p21, p27, Cyclin B, cdc2, CDK2, CDK4, CDK6, Cyclin D1, Cyclin D3, pRb; assay: Protein levels of cell cycle regulatory proteins; type: cell-based
Method: (§3) Flow cytometry analysis was performed to verify whether COMPOUND I induced apoptosis was related to cell cycle arrest. Cell cycle distribution in KRAS Mutated cell lines was quantified after treatment with different COMPOUND I concentrations. […] Therefore, it was attempted to determine whether COMPOUND I treatment also can influence the expression level of G1/S phase cell cycle regulatory proteins.

[4] = tested on: normal monkey Kidney epithelial cells; assay: MTT cytotoxicity on normal cells; type: cell-based; conditions: normal monkey Kidney epithelial cells versus cancer cell lines
Method: as §1

Control cell lines = assay: Cell-cycle regulation and apoptosis in control cell lines; type: cell-based; conditions: control cell lines compared with KRAS Mutated cell lines
apoptosis = assay: DNA fragmentation assay / apoptosis quantitation; type: cell-based
Method: (§4) To confirm that COMPOUND I induced cell apoptosis, DNA fragmentation assay, was performed. […] Furthermore, the expression levels of proteins related to apoptosis and cell cycle progression by western blotting were examined. Cells were treated with COMPOUND I at different concentrations and total proteins were isolated. Beta-Actin was used as an internal control. […] The effect of drugs on the cleavage of procaspase 9 and procaspase 3 were examined. […] Caspase-3 is a key regulator of mitochondrial dependent and independent apoptotic pathways and activation of caspase-3 leads to cleavage of several substrates including PARP.

Ras-GTP complex = assay: Ras pull-down assay; type: cell-based, human; conditions: PANC-1, MIA PaCa-2 and NCIH1975; read-out: IC50 Ras-GTP complex formation
Method: As a follow up to the downstream assays, the ability of COMPOUND I was also measured to inhibit Ras-GTP complex formation in the three tested cell-lines (PANC-1, MIA PaCa-2 and NCIH1975) using a Ras pull-down assay. […] These values correlate well with the IC50 values obtained for the inhibition of MEK, Erk1/2 and Akt phosphorylation presented in FIGS. 2 and 3.

Akt = assay: Inhibition of Ras downstream pathways: Akt phosphorylation; type: cell-based; conditions: Homo sapiens, read-out: IC50 phosphorylation and activation of Akt
Method: as §2

Erk1/2 = assay: Inhibition of Ras downstream pathways: Erk1/2 phosphorylation; type: cell-based; conditions: Homo sapiens, read-out: IC50 phosphorylation and activation of Erk1/2
Method: as §2

[5] = tested on: Bcl-2, Bax, caspase-9, caspase-3, PARP; assay: Western blotting of apoptosis-related proteins; type: cell-based; conditions: western blot
Method: as §4

MEK = assay: Inhibition of Ras downstream pathways: MEK phosphorylation; type: cell-based; conditions: Homo sapiens, read-out: IC50 phosphorylation and activation of MEK
Method: as §2

KRAS Mutated cell lines = assay: Flow cytometry cell cycle distribution; type: cell-based
Method: as §3

COc1cc(C(C)=O)ccc1C(=O)COP(=O)(O)OP(=O)(O)OP(=O)(O)OCC1OC(n2cnc3c(=O)[nH]c(Nc4ccc(O)cc4)nc32)C(O)C1O (centres unmarked) [COMPOUND I]
proliferation / cell viability [1]: inhibited the proliferation of all the cell lines in a dose-dependent manner | IC50 (MEK, Erk1/2 and Akt): 1000 to 3000 nM | total Akt and mTOR levels (Akt, mTOR, ERK): remained constant | phosphorylation of Akt and mTOR (Akt, mTOR, ERK; Serine 473 and Serine 2448, concentration-dependent): suppressed | phosphorylation of ERK (Akt, mTOR, ERK; Threonine 202 and Tyrosine 204): suppressed | IC50 [2]: 450 to 1200 nM | expression levels of p21, p27 and p53 ([3]; KRAS Mutated cell lines): Greater expression levels | expression levels of CDK4, CDK6, Cyclin D1, Cyclin D3, pRb ([3]; dose-dependent): decreased significantly | expression levels of Cyclin B, cdc2, CDK2 ([3]; dose-dependent): decreased significantly | sensitivity to induced cytotoxicity [4]: less sensitive | changes in cell-cycle regulation and apoptosis (Control cell lines): better protected | DNA fragmentation (ladder pattern in agarose gels) (apoptosis; 48 hours, all concentrations tested): lead to DNA fragmentation | apoptosis (quantitative analysis) (apoptosis; treated cells): significant increase of apoptosis | IC50 (Ras-GTP complex): 2000 to 3000 nM | IC50 (Akt; NCI-H1975, NCIH1975 (KRas WT)): ~5000 nM | IC50 (Akt; MIA PaCa-2 (K-Ras G12C mutant)): ~5000 nM | IC50 (Akt; PANC-1 (K-Ras G12D mutant)): ~5000 nM | IC50 (Erk1/2; MIA PaCa-2 (K-Ras G12C mutant)): ~2000 nM | IC50 (Erk1/2; NCI-H1975 (KRas WT)): ~3000 nM | IC50 (Erk1/2; PANC-1 (K-Ras G12D mutant)): ~2000 nM | cleavage of PARP into 116 kDa and 84 kDa fragment [5]: induced the cleavage of PARP | cleavages of procaspase 9 and procaspase 3 [5]: induced in a dose-dependent manner | expression of Bcl-2 ([5]; dose dependent): down regulated | expression of proapoptotic proteins Bax, caspase-9 and caspase-3 ([5]; dose dependent): induced expression | IC50 (MEK; MIA PaCa-2 (K-Ras G12C mutant)): ~2000 nM | IC50 (MEK; NCI-H1975 (KRas WT)): ~3000 nM | IC50 (MEK; PANC-1 (K-Ras G12D mutant)): ~2000 nM | cells showing G1/S phase arrest (KRAS Mutated cell lines): 23.98% | number of cells in the G2/M phase (KRAS Mutated cell lines): 76.89%
